The values that follow come from paper PMC7613620, “Reaction hijacking of tyrosine tRNA synthetase as a whole-of-life-cycle antimalarial strategy” (Science (New York, N.Y.), 2022).

The structures appear in SMILES notation.

One assay concerns P. falciparum (3D7). Put plainly: P. falciparum (3D7) culture growth inhibition, 72 h. It counts as cell-based, Plasmodium falciparum. The conditions noted are these: Plasmodium falciparum, 3D7, 72 h, read-out: Pf3D7 IC50(72h). The method, then: (1 picture or pasted object on this page, not shown here)
553 Sigma-Aldrich) for 48-72 h. For drug pulse assays, tightly synchronized parasites (1-1.5% parasitemia,
554 0.2% final hematocrit) were added to the plates and incubated for 3 h. Drugs were removed and the
555 parasitemia assessed in the trophozoite stage of the next cycle.
557 Compounds were tested against a range of drug resistant field isolates and laboratory strains using a
558 modified [3H]-hypoxanthine incorporation assay, as previously reported (46). Field isolates 7G8, Cam3.1,
559 Dd2, K1, TM90C2B and NF54 were obtained from MR4 (www.beiresources.org).
561 Mammalian cell culture experiments
562 The HepG2 (Human hepatocyte carcinoma) cell line was procured from ATCC (American Type
563 Culture Collection, Manassas, USA; HB-8065) and viability assessed using Cell Titer-GLO luminescent
564 cell viability assay reagents (Promega, catalogue number: G7570) (47, 48). For the assay, 2000 cells/well
565 were plated in 384-well plates 24 h prior to the experiment and incubated at 37°C in a CO2 incubator. The
566 medium was removed and cells were treated with fresh medium containing either vehicle (0.5% DMSO)
567 or serially diluted test compounds or doxorubicin (1.3 nM to 25 µM) in a final volume of 50 µl/well and
568 further incubated for 72 h at 37°C in a CO2 incubator.
569 were treated with 5 µl of 1% Triton X-100 (final assay conc. 0.1%). Following incubation, 25 µl of medium
570 was discarded and 25 µl of Cell Titer-GLO reagent was added to each well and the plate was kept on a plate
571 shaker for 15 min at 25°C with shaking at 300 rpm. Luminescence signals were measured in a Spectramax
572 M5 reader (Molecular Devices).
(§1) 574 H1650 is a human lung cancer derived ATG7-null cell line (49) that can be used to assess effects on targets
(§2) 576 adenocarcinoma; bronchoalveolar carcinoma). Other cells lines used are: H460 (NCI-H460; human lung;
(§3) 577 carcinoma; large cell lung cancer; ATCC: HTB-177); and HCT116 (human colon; colorectal carcinoma;
(§4) 578 ATCC: CCL-247; Lot : 5056139). Each of the cell lines was received from the American Type Culture
(§5) 579 Collection (ATCC) and passaged twice before freezing. Cells were cultured in the presence or absence of
(§6) 580 inhibitors and cell viability was assessed by comparing the ATP content in compound-treated wells with
581 that in DMSO-treated wells as previously described (11).
583 HeLa cells (human cervical adenocarcinoma; genome sequenced (Garvin Institute, Australia) and verified

Another assay concerns H1650. The experiment in a line: H1650 cell viability (ATP content). It counts as cell-based. The conditions noted are these: Homo sapiens, NCI-H1650, 72 h, read-out: H1650 IC50(72h). The method, then: as §1, §2, §3, §4, §5, §6
(§7) 581 that in DMSO-treated wells as previously described (11). […]
(§8) 585 37°C humidified incubator as adherent semi-confluent monolayers in complete Dulbecco’s Modified Eagle
(§9) 586 Media (c-DMEM). DMEM (Gibco™, Thermo Fisher Scientific, Australia) was supplemented with 10%

Another assay deals with H460. The experiment in a line: H460 cell viability (ATP content). The conditions noted are these: Homo sapiens, NCI-H460, 72 h, read-out: H460 IC50(72h). It counts as cell-based. The method, then:
as §1, §2, §3, §4, §5, §6, §7, §8, §9

For the next assay, the system named is HCT116. Put plainly: HCT116 cell viability (ATP content). It counts as cell-based. Conditions: Homo sapiens, HCT-116, 72 h, read-out: HCT116 IC50(72h). The method, then: as §1, §2, §3, §4, §5, §6, §7, §8, §9
The test system of assay [1] is eIF2α phosphorylation in P. falciparum. The experiment in a line: Western blot for phosphorylated-eIF2α. Conditions: wildtype P. falciparum cultures. It counts as cell-based, Plasmodium falciparum. The method, then: Synchronous ring-stage YRScyt conditional knockdown line and the aptamer-regulatable control
700 the drug plate. Lowest drug treatment and a lethal dose of chloroquine (200 nM) served as reference
Two guide RNAs (gRNA1: […] and gRNA2:
Ring-stage P. falciparum parasites (Dd2 strain) at 10%
Using a modification of a published procedure (14), the
722 cells were labelled with O-propargyl-puromycin (OPP; 4 µM) for 1 h, washed 3x (PBS +3% serum) and
Flow cytometry was performed
730 hematocrit and 5% parasitemia. The RBC pellet was washed 3 x in PBS + cOmplete. Cells were centrifuged
The wash with PBS + cOmplete and
The pellet was resuspended in Bolt LDS sample
The samples were vortexed for 10 min at room temperature.
Secondary antibodies: goat
740 anti-rabbit IgG-peroxidase (Sigma-Aldrich-A0545; 1:20 000), goat anti-mouse IgG-peroxidase (Chemicon-
Chemiluminescence was detected using the Bio-Rad ChemiDocTM MP imaging
For the human mature YRS construct,
The YRS sequences were codon optimized for E. coli,
The vector was transformed into
PfYRS, PfYRSS234C and HsYRS were induced
Cell pellets were resuspended in 40 mL lysis
Cells were lysed by sonication (Microtip, QSonica)
The supernatant was applied to a 5
757 mL HisTrap HP column (GE Healthcare) and washed with 50 mL binding buffer containing 50 mM Tris-
His-YRS was eluted using a 0-500 mM
The eluted His-YRS was dialyzed overnight at 4°C
760 against 50 mM Tris-HCl, pH 8, 500 mM NaCl, 30 mM imidazole, 1 mM TCEP with the addition of His-
Cleaved His tags from His-YRS and TEV
YRS was further purified by gel filtration using a HiLoad 16/600 Superdex 200 column (GE

Assay [2] deals with T1, PfYRS (Plasmodium falciparum, UniProt Q8IAR7). The experiment in a line: Tyrosine acylation of cognate tRNATyr by PfYRS. It counts as biochemical.
A further assay concerns the target T2, HsYRS (Homo sapiens, UniProt P54577).
T2 construct: made in house; host or cells: E. coli BL21(DE3), pET-11a
T2 sequence (P54577 1-364): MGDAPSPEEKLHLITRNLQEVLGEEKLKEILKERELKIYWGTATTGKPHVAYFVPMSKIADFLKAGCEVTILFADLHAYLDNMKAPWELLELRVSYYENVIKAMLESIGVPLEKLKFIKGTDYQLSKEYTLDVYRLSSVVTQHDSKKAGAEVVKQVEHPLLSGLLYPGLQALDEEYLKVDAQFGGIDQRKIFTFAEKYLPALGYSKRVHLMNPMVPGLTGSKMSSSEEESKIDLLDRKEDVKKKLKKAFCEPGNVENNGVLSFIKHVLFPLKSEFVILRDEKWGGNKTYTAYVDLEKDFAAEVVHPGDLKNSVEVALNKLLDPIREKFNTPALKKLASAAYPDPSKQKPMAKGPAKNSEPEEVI
The experiment in a line: Tyrosine acylation of cognate tRNATyr by HsYRS. It counts as biochemical. Conditions: YRS 0.25 μM, ATP 10 μM, 37°C 1 h.

Assay [3] deals with T1, PfYRS. Put plainly: biochemical. It counts as binding. The method, then: (§10) 804 An intron was detected in the PftRNATyr sequence, that was not indicated in PlasmoDB. A T7 RNA
(§11) 805 polymerase promoter sequence was added to the 5’ end of the DNA sequence of P. falciparum and H.
(§12) 806 sapiens tRNATyr. This DNA template and its complementary strand were custom-synthesized by Sigma-
(§13) 807 Aldrich. Two oligonucleotides were annealed at 95°C for 5 min and the double-stranded DNA template
(§14) 808 was used for in vitro transcription. The transcription reaction was incubated at 37°C overnight. The reaction
(§15) 809 mixture consists of template DNA, T7 RNA polymerase and NTP mix as per manufacturer's instructions
(§16) 810 (HiScribe™ T7 Quick High Yield RNA Synthesis Kit, NEB). On the following day, the reaction mixture
(§17) 811 was treated with DNase I at 37°C for 15 min. tRNA was purified using RNA clean-up spin columns
(§18) 812 (Monarch® RNA Cleanup Kit, NEB) to remove contaminants from the transcription reaction.
(§19) 814 Differential scanning fluorimetry (DSF)
(§20) 815 PfYRS and HsYRS at 0.1 mg/ml were incubated with various substrates at 37°C for 1-3 h. PfYRS was
(§21) 816 assayed in 25 mM Tris, pH 8, 150 mM NaCl, 5 mM MgCl2 and 1 mM TCEP. HsYRS was assayed in 50
(§22) 817 mM Tris, pH 7.5, 150 mM NaCl, 50 mM KCl, 5 mM MgCl2 and 1 mM TCEP. SYPRO Orange (Sigma-
(§23) 818 Aldrich; 5,000X concentrate in DMSO) was added to the reaction mixture at a final concentration of 2.5X.
(§24) 819 25 µL of the sample was added into each well of a 96-well qPCR plate (Applied Biosystems). The plate
(§25) 820 was sealed and analysed using StepOnePlus Real-Time PCR system (Applied Biosystems). The samples
(§26) 821 were heated from 20°C to 90°C with a 1% continuous gradient. The thermal unfolding curve was plotted
(§27) 822 as the first derivative curve of the raw fluorescence values. The melting temperature (Tm), defined as the
(§28) 823 peak of the first derivative curve, was used to assess the thermal stability of protein-ligand complexes. KD
(§29) 824 values were calculated from DTm using the equation: ln(KD/[L]) = -131.5 x (∆Tm/Tm,apo) - 1.9, where [L]
(§30) 825 is the concentration of ligand and T is the temperature in Kelvin (40). […]

Another assay has as its target PfYRSS234C (Plasmodium falciparum, UniProt Q8IAR7, S234C). Put plainly: biochemical. It counts as binding. The method, then:
as §10, §11, §12, §13, §14, §15, §16, §17, §18, §19, §20, §21, §22, §23, §24, §25, §26, §27, §28, §29, §30

T1 sequence (Q8IAR7 entry or part of it): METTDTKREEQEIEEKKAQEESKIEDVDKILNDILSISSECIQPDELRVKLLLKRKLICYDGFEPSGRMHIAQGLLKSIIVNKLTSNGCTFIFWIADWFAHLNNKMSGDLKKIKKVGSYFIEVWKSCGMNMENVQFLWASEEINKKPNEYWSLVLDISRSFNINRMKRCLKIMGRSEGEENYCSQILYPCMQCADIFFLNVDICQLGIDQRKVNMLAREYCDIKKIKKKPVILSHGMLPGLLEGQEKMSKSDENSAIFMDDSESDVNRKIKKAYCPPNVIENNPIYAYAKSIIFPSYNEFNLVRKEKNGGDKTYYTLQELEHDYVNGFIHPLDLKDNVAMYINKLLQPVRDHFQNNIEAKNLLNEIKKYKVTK
PfYRSS234C, sequence (Q8IAR7 whole entry S234C): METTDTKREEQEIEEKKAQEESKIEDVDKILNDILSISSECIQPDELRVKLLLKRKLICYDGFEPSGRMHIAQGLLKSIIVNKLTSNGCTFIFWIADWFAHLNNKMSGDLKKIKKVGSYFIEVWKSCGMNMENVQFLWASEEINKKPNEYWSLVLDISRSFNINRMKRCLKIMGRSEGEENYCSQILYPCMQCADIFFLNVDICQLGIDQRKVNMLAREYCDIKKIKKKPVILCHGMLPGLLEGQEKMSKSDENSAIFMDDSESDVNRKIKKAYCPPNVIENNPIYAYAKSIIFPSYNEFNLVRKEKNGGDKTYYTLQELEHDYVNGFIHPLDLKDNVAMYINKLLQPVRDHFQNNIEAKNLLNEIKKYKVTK

Regarding `Nc1ncnc2c1ncn2[C@@H]1O[C@H](COS(N)(=O)=O)[C@@H](O)[C@H]1O` [AMS, adenosine 5′-sulfamate, reference compound], the IC50 came to 1.8 nM in the assay with P. falciparum (3D7), 140 nM in the assay with H1650, 25 ± 7 nM with H460 and 26 nM in the assay with HCT116. Moreover, the eIF2α phosphorylation entry in [1] is “triggers eIF2α phosphorylation”.
For the molecule `Nc1ncnc2c1c(OC(F)F)nn2C1OC(COS(=O)(=O)NC(=O)C(N)Cc2ccc(O)cc2)C(O)C1O` (stereo not drawn) [ML901-Tyr], the 50% inhibitory concentration (IC50) amounted to 1600 nM at PfYRS [2] and 23000 nM at HsYRS. The Kd on PfYRS [3] stood at 0.7 nM; at PfYRSS234C it was 3.9 nM. Also, the Tm at PfYRS [3] (PfYRS 2.3 μM, after incubation at 37°C for 3 h) came to 65.1 ± 0.1 oC; on PfYRSS234C (PfYRSS234C 2.3 μM, after incubation at 37°C for 3 h) it was 59.7 ± 0.3 oC. The molecule also showed a DTm at PfYRS [3] (PfYRS, versus apo) of 14.9 oC.
